Consider six compounds from patent publication US11207343B2, “Compositions and therapeutic methods” (AyuVis Research LLC, priority 2016, dated 2021).

Assay [1] has as its system LPS induced cytokines (TNF-α, IL-1β and IL-6) in human monocytes. The experiment in a line: Inhibition of LPS induced inflammatory mediators in human monocytes. The format is cell-based. Particulars: for inhibiting LPS induced inflammation biomarkers (TNF-α, IL-1β and IL-6) in human monocytes: concentration not given; for inhibition of LPS induced TNF-α production: 100 μM. The procedure:
To understand the structural requirement and limitations to probe the TLR4 binding pocket for optimal potency and efficacy, we have studied the ability of chitooligomers to inhibit LPS induced inflammation in human monocytes (FIG-8 A-B). Compounds 1-4 inhibited LPS induced cytokines TNF-α, IL-1β and IL-6) in a statistically significant manner at 10 μM concentration. […] The protocol was followed as described [Panda etal, PLoS Pathog 2012, 8, e1002717]. Human monocytes were stimulated with LPS along with the series of compounds (10 μM) for 48 h. TNF-α, IL-1β, I1-6 in culture supernatants were quantified according to the manufacturer's instruction. Similarly, other analogs were assessed for their ability to inhibit LPS induced TNF-α production in human monocytes.

Assay [2] concerns gram negative (E. Coli, P. Aeruginosa, A, Baumannii, K. Pneumonia), gram positive (MRSA), fungus (C. Albicans). Kind of assay: MIC broth microdilution antimicrobial screen. The format is cell-based. The source says:
The compounds were screened against selected gram negative (E. Coli, P. Aeruginosa, A, Baumannii, K. Pneumonia), gram positive (MRSA) as well as fungus (C. Albicans) mostly found in burn and septic wounds. […] All prepared compounds have been evaluated in a Minimum Inhibitory Concentrations (MIC) assay with both test and control articles in accordance with guidelines of the Clinical Laboratory Standards Institute (CLSI) for broth microdilution susceptibility testing. Briefly, test and control compounds have been dissolved in DMSO, diluted to proper concentrations and added to 96-well microdilution trays. Brain Heart Infusion Broth (BHI) was used for studies with bacterial strains such as S. aureus, E. coli, P. Aeruginosa, K pneumoniae, A. baumannii and Candida albicans. Compounds were diluted serially from 200 μg/ml to 0.0625 μg/ml and plated in 96 well plates, and inoculated with approximately 1×10^5 CFU of each organism.

The next assay has as its system MRSA and MSSA strains. Kind of assay: Activity against MRSA and MSSA strains compared to colistin. The format is cell-based, S. aureus. The conditions noted are these: colistin as positive control. The source says:
(§1) Further we studied their biofilm inhibition and eradication activities against biofilm cells as described previously [Ceri et al, Journal of Clinical Microbiology 1999, 37, 1771-1776]. […] Thus, these compounds with activities against S. aureus biofilms will have significant impact on controlling recalcitrant biofilm-mediated endovascular infections [Li et al, J Infect Dis. 2016 Nov. 1;214(9):1421-1429; Archer et al, Virulence 2011, 2, 445-459]. Briefly, we used Calgary Biofilm Device (CBD) technology for the biofilm susceptibilities to compounds. The CBD produces 96 equivalent biofilms for the assay of antibiotic susceptibilities by the standard 96-well technology. Susceptibility to a standard group of compounds and antibiotics was determined for National Committee for Clinical Laboratory Standards (NCCLS) as described previously.

The test system of assay [3] is S. aureus biofilms (MRSA, MSSA). The experiment in a line: Biofilm inhibition and eradication, Calgary Biofilm Device. It is filed as cell-based.
From the text: as §1

Assay [4] has as its system LPS induced TNF-α in mouse bone marrow derived macrophages. The experiment in a line: Inflammatory mediator (TNF-α) in mouse bone marrow derived macrophages. The format is cell-based. The conditions noted are these: for inhibition of LPS induced production of TNF-α: 100 μM, 8 hours, mouse bone marrow derived macrophages; for inhibiting LPS and HMGB1 induced inflammation biomarkers (TNF-α, IL-1β and IL-6): bone derived mouse macrophages. The procedure:
Bone marrow derived mouse macrophages were treated with 100 μM of the above test compounds for 8 hours. Pro-inflammatory cytokines such as TNF-α protein level was measured by […]. LPS treatment (10 ng/ml) was used as positive control (FIG. 9).

Assay [5] relates to HMGB1 induced VEGF production in ARPE-19 cells. The experiment in a line: HMGB1 induced VEGF production in ARPE-19 cells (ELISA). It is filed as cell-based, human. The conditions noted are these: 50 μg/mL, 100 ng/mL HMGB1, 24 h, p<0.01. The source says: Central to photoreceptor survival and function, the RPE is the major source of the angiogenic factor VEGF and therefore plays a central role in the modulation and progression of choroidal neovascularization [Spilsbury et al, The American Journal of Pathology 2000, 157, 135-144; Betts et al, ISRN Ophthalmology 2011, 2011, 184295] leading to AMD. As part of our preliminary result to evaluate if compounds 1 and 2 can inhibit the HMGB1 (an endogenous ligand for TLR4) induced VEGF production in ARPE-19 cells. […] 2×10^5 ARPE-19 cells were seeded in 24 well plate for 24 h in full medium containing 10% serum following which they were maintained for additional 24 h with serum free medium. Cells were treated with 0 μg/mL (medium) or 100 ng/mL of HMGB1 along with or without of 50 μg/mL of test compounds for 24 h. Supernatant was collected and assayed using human VEGF ELISA kit from Peprotech according to manufacturer's instructions. RPE cells are located adjacent to choroidal capillaries and other major ocular vasculatures.

Assay [6] relates to laser-induced choroidal neovascularization. Kind of assay: Laser-induced CNV mouse model for wet AMD. The format is in vivo, C57BL/6 mice. The text has this: The parameters used to reproducibly obtain successful laser spots (as confirmed by a gas bubble formation indicating rupture of Bruch membrane) were: 350 mW, 75 msec, and 50 μm spot size. Four laser spots were applied; 2-3 disc diameters from the optic nerve. […] By the end of the experiment, mouse eyes were examined by fundus fluorescein angiography and/or optical coherence tomography (OCT) to visualize the CNV lesions. Afterwards animals were sacrificed and RPE/choroid/sclera flat mounts were prepared and stained with both FITC-conjugated isolectin B4 and anti-ICAM-2 antibody to quantitatively measure the size of CNV. We have performed two experiments to test the effects of 1, 2, 26 on laser-induced CNV.

For a further assay, the system named is E. coli (ATCC-25922). The experiment in a line: Lethal gram negative E. coli sepsis mouse model. It is filed as in vivo. Particulars: 250 μg/animal with 2×10^5 CFU E. coli intraperitoneally, BALB/c mice. The protocol: In an in vivo mice model, chitohexaose (Compound 1) protected mouse from lethal gram negative sepsis against E. coli. Previously reported bacterial sepsis model [Roger etal, Proc Natl Acad Sci USA. 2009 Feb 17;106(7):2348-52] was recruited to study the efficacy of Compound 1 (FIG-1). Intraperitoneally 2×10^5 CFU of E. coli (ATCC-25922) was injected into BALB/c mice with and without Compound 1 (250 μg/animal). E. coli mediated sepsis induced mortality whereas simultaneous treatment of mice with Compound 1 protected (40%) from sepsis induced death. The above result explained that bacteria induced sepsis and mortality is inhibited and delayed for a certain period of time which may provide a window for therapy.

Take `CC1(C)CC(C(=O)NC2C(OC3C(CO)OC(O)C(N)C3O)OC(CO)C(OC3OC(CO)C(O)C(O)C3N)C2O)CC(C)(C)N1[O]` (stereo not shown) [Compound 11]: the “inhibiting LPS induced inflammation biomarkers (TNF-α, IL-1β and IL-6) in human monocytes” value in assay [1] was “unexpectedly superior activity”.
`CC(=O)NC1C(OC2C(CO)OC(Oc3ccc4c(C)cc(=O)oc4c3)C(NC(C)=O)C2O)OC(CO)C(O)C1O` (stereo not shown) [Compound 12]: the “inhibition of LPS induced TNF-α production” value in assay [1] (human monocytes) is “potent inhibitor”. For the same compound, the “broad spectrum antimicrobial activity against gram negative, gram positive bacteria and fungus” value in assay [2] is on record as “broad spectrum antimicrobial activity”. For the same compound, the “activity against MRSA and MSSA strains compared to colistin” value in the assay with MRSA and MSSA strains is on record as “better activity”. The “inhibition of biofilm formation by MSSA and MRSA” value in assay [3] is “unexpectedly inhibited biofilm formation”.
Consider `COCC1OC(Oc2ccc([N+](=O)[O-])cc2)C(NC(C)=O)C(O)C1O` (stereo not shown) [Compound 16], for which the “inhibition of LPS induced TNF-α production” value in assay [1] (human monocytes) is reported as “potent inhibitor”.
On to chitohepatose [Compound 2], for which the “potency relative to chitohexaose (Compound 1), percentage of inhibition of LPS mediated induction of inflammatory cytokines” value in assay [1] (10 μM, human monocytes) is “more potent than chitohexaose”. In addition, the “inhibiting LPS induced inflammation biomarkers (TNF-α, IL-1β and IL-6) in human monocytes” value in assay [1] is “unexpectedly potent activity”. In assay [4], the “inhibition of LPS induced production of TNF-α” value is “Inhibits”; the “inhibiting LPS and HMGB1 induced inflammation biomarkers (TNF-α, IL-1β and IL-6)” value is on record as “unexpectedly potent activity”. The “HMGB1 induced VEGF production” value in assay [5] is given as “effectively reduced”. Besides, the “average size of CNV lesions, relative to control mice treated with vehicle only” value in assay [6] (200 μg daily i.p. injection) is “about 60%”. In addition, the “decrease of choroidal neovascularization” value in assay [6] (as worded in heading of Example 16) is recorded as around 60%.
chitohexaose [Compound 1]: in assay [4], the “inhibition of LPS induced production of TNF-α” value is reported as “Inhibits”. Also, the “protection from sepsis induced death” value in the assay with E. coli (ATCC-25922) is reported as 40%. The “activity against MRSA and MSSA strains compared to colistin” value with MRSA and MSSA strains is given as “better activity”. Also, the “HMGB1 induced VEGF production” value in assay [5] is “effectively reduced”.
For chitooctaose [Compound 3], in assay [1], the “inhibiting LPS induced inflammation biomarkers (TNF-α, IL-1β and IL-6) in human monocytes” value is listed as “unexpectedly potent activity”. In addition, the “inhibiting LPS and HMGB1 induced inflammation biomarkers (TNF-α, IL-1β and IL-6)” value in assay [4] was “unexpectedly potent activity”.
